Results taken from patent US7264314B2, “Adrenocorticotropic hormone analogs and related methods” (priority 2004, dated 2007).
No end group written: not given here.

Test system: ACTH-induced serum corticosterone in dexamethasone-suppressed mice
Assay: in vivo Serum Corticosteroid Inhibition Assay
Parameters: species or system FVB/N mice
Conditions: for reduction in serum corticosterone levels: ACTH alone = 100%; for serum corticosterone level at 180 minutes: blood one hour later; for corticosterone induction as percent of that of wildtype ACTH: 1 hour after last injection
Description: An in vivo Serum Corticosteroid Inhibition Assay measures the level of corticosteroid or corticosterone in the blood stream of a subject after administering a compound having a first corticosteroid-producing biological activity and a test compound. The compound having the corticosteroid-producing biological activity can be any compound known to induce a detectable increase in corticosteroid production. The test compound can be administered before the corticosteroid-producing compound, in combination with the corticosteroid-producing compound, and/or after the corticosteroid-producing compound. The corticosteroid-producing compound is preferably ACTH, but can also be an ACTH analog with a known corticosteroid-producing biological activity. By performing a series of in vivo Serum Corticosteroid Inhibition Assays using ACTH analog test compounds, ACTH analogs that inhibit the production of corticosteroid relative to the corticosteroid-producing compound used can be identified. Preferably, the ACTH analogs identified in this manner inhibit the production of corticosteroid in the presence of endogenous unmodified ACTH.
The in vivo Serum Corticosteroid Inhibition Assay can include sequential administration of the test compound and the corticosteroid-producing compound by the following steps: first, an agent to suppress endogenous ACTH production was administered to a mouse subject, such as an intraperitoneal injection of dexamethasone; second, after waiting a suitable period of time for suppression of endogenous ACTH production (e.g., 1.5–2.0 hours), a test compound was administered to the mouse by a suitable method, such as intraperitoneal injection; third, after waiting a suitable period of time (e.g., 1 hour) for action of the test compound, a compound with corticosteroid-producing activity can be administered to the mouse by a suitable method, such as intraperitoneal injection; and fourth, after waiting a suitable period of time for the biological activity of both administered compounds to occur (e.g., 1 hour), a blood sample was taken from the subject and the level of serum corticosterone was determined by a suitable method, such as a competitive radioimmunoassay using ^125I RIA kit (ICN, Costa Mesa, Calif.). Optionally, steps two and three can be reversed (administering the corticosteroid-producing compound first, followed by administration of the test compound). The in vivo Serum Corticosteroid Inhibition Assay can also include co-administration of the test compound and the corticosteroid-producing compound by the following steps: first, an agent to suppress endogenous ACTH production was administered to a mouse subject, such as an intraperitoneal injection of dexamethasone; second, after waiting a suitable period of time for suppression of endogenous ACTH production (e.g., 1.5–2.0 hours), the corticosteroid-producing compound and a test compound were co-administered to the mouse by a suitable method, such as intraperitoneal injection; and third, after waiting a suitable period of time for the biological activity of both administered compounds to occur (e.g., 1 hour), a blood sample was taken from the subject and the level of serum corticosterone was determined by a suitable method, such as a competitive radioimmunoassay using ^125I RIA kit (ICN, Costa Mesa, Calif.). Also, in some embodiments, the first step in any in vivo Serum Corticosteroid Inhibition Assay can be replaced by a measurement of the initial endogenous corticosteroid or corticosteroid level in the blood of the subject in the manner of step four, instead of administering the agent to suppress ACTH production. Example 2 describes murine in vivo Serum Corticosteroid Inhibition Assays in detail.
A series of separate in vivo Serum Corticosteroid Inhibition Assays were performed to identify ACTH analogs that inhibit ACTH adrenal hormone production in vivo. […]

**Q.** Which results are given for “N-Ser^1-Tyr-Ser-Met-Glu^5-His-Phe-Arg-Trp-Gly^10-Lys-Pro-Val-Gly-Lys^15-Arg-Ala-Ala-Trp-Val^20-Lys-Val-Tyr-Pro-Ac (SYSMEHFRWGKPVGKRAAWVKVYP; not fully specified (C-terminus); printed as N-Ser1-Tyr-Ser-Met-Glu5-His-Phe-Arg-Trp-Gly10-Lys-Pro-Val-Gly-Lys15-Arg-Ala-Ala-Trp-Val20-Lys-Val-Tyr-Pro-Ac) [AT814]”?
**A.** reduction in serum corticosterone levels (ACTH analog 30 minutes before ACTH): ~65%; serum corticosterone level at 180 minutes (ACTH analog at 90 minutes, mACTH(1–24) at 120 minutes after dexamethasone, listed as (KKRRP15-19KRAAW) mACTH(1–24)): 175 ± 27 ng/mL; serum corticosterone level at 180 minutes (ACTH analog at 90 minutes, mACTH(1–24) at 120 minutes after dexamethasone, listed as (KKRRP15-19KRMW) mACTH(1–24)): 175 ± 27 ng/mL; reduction in serum corticosterone levels (ACTH analog concurrently with ACTH): ~90%; serum corticosterone level at 180 minutes (ACTH analog together with mACTH(1–24) at 120 minutes after dexamethasone): 51 ± 8 ng/mL; serum corticosterone level at 180 minutes (ACTH analog together with mACTH(1–24) at 120 minutes after dexamethasone, listed as (KKRRP15-19KRAAW) mACTH(1–24)): 51 ± 8 ng/mL; corticosterone induction as percent of that of wildtype ACTH (applied 30 minutes before the ACTH injection): 35%; corticosterone induction as percent of that of wildtype ACTH (applied at the same time as the ACTH injection): 10%
